In the experiment the target is T1, human IBAT (Homo sapiens, UniProt Q12908).
T1 construct: expressed in transfected cells; host or cells: Baby hamster kidney (BHK) cells, clone H14
T1 sequence (Q12908 1-348): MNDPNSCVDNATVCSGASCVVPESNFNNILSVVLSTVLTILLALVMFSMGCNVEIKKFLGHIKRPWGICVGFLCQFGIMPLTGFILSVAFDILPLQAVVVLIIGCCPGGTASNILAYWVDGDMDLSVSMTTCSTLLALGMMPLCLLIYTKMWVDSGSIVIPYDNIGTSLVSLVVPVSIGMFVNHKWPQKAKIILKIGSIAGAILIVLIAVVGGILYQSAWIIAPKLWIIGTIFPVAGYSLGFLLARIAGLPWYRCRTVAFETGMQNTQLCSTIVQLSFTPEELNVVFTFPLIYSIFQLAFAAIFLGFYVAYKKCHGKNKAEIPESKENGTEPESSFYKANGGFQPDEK
Kind of experiment: In vitro assay of IBAT-mediated uptake of [14C]-taurocholate (TC) in H14 cells. It counts as cell-based. To be noted: for inhibition at 100 µM: read-out: In vitro % Inhibition of TC Uptake @ 100 uM; for IC50: H14 cells, Table 5, read-out: IC50 uM (In vitro Taurocholate Cell Uptake). The procedure: In Vitro Assay of Compounds that Inhibit IBAT-Mediated Uptake of [^14C]-Taurocholate (TC) in H14 Cells
Baby hamster kidney cells (BHK) transfected with the cDNA of human IBAT (H14 cells) are seeded at 60,000 cells/well in 96 well Top-Count tissue culture plates for assays run within in 24 hours of seeding, 30,000 cells/well for assays run within 48 hours, and 10,000 cells/well for assays run within 72 hours.
On the day of assay, the cell monolayer is gently washed once with 100 μl assay buffer (Dulbecco's Modified Eagle's medium with 4.5 g/L glucose+0.2% (w/v) fatty acid free bovine serum albumin-(FAF)BSA). To each well 50 μl of a two-fold concentrate of test compound in assay buffer is added along with 50 μl of 6 μM [^14C]-taurocholate in assay buffer (final concentration of 3 μM [^14C]-taurocholate). The cell culture plates are incubated 2 hours at 37° C. prior to gently washing each well twice with 100 μl 4° C. Dulbecco's phosphate-buffered saline (PBS) containing 0.2% (w/v) (FAF)BSA. The wells are then gently washed once with 100 μl 4° C. PBS without (FAF)BSA. To each 200 μl of liquid scintillation counting fluid is added, the plates are heat sealed and shaken for 30 minutes at room temperature prior to measuring the amount of radioactivity in each well on a Packard Top-Count instrument.

pIC50: −log10 of the molar value. Read-outs that look alike come from different tables or passages of the source.

As for “8b-Phenyl-1a,2,3,8b-tetrahydrospiro(benzothiepino[4,5-b]oxirene-2,1′-cyclohexane)-4,4-dioxide [Example 58]”, the “In vitro % Inhibition of TC Uptake” value (50 μM) is 88%.
Regarding `CCCC[C@]1(CC)CSc2ccccc2[C@H](c2ccccc2)C1=O` (relative stereo) [Example 4a, cis-3-Butyl-3-ethyl-5-phenyl-2,3-dihydrobenzothiepin-(5H)4-one], the inhibition at 100 µM was 3%.
Same read-out and setting: under `CCCC[C@]1(CC)CSc2ccccc2[C@@H](c2ccccc2)C1=O` (relative stereo) [Example 4b, trans-3-Butyl-3-ethyl-5-phenyl-2,3-dihydro-benzothiepin-(5H)4-one] stands 9%; under `CCCC[C@]1(CC)CS(=O)(=O)c2ccccc2[C@H](c2ccccc2)C1=O` (relative stereo) [Example 5a, cis-3-Butyl-3-ethyl-5-phenyl-2,3-dihydrobenzothiepin-(5H) 4-one-1,1-dioxide], 34%.
Take `O=S1(=O)CC2(CCCCC2)[C@@H](O)[C@H](c2ccccc2)c2ccccc21` (relative stereo) [Example 59, trans-4-Hydroxy-5-phenyl-2,3,4,5-tetrahydro spiro(benzothiepine-3,1′-cyclohexane)-1,1-dioxide]: the IC50 came out at 70 µM.
In the case of `CCCCC1(CC)CS(=O)(=O)c2ccccc2C(Sc2ccccc2)C1O` (single isomer, unassigned) [Example 21b, 3-Butyl-3-ethyl-4-hydroxy-5-phenylthio-2,3,4,5-tetrahydro-benzothiepine-1,1-dioxide], the “In vitro % Inhibition of TC Uptake @ 100 uM” value is recorded as 45%.
Take `CCCCC1(CC)CS(=O)(=O)c2ccccc2C(Sc2ccccc2)C1O` (single isomer, unassigned) [Example 21c, 3-Butyl-3-ethyl-4-hydroxy-5-phenylthio-2,3,4,5-tetrahydro-benzothiepine-1,1-dioxide]: the “In vitro % Inhibition of TC Uptake @ 100 uM” value came out at 52%.
Consider `CCCCC1(CC)CS(=O)(=O)c2ccc(NC(=O)OCc3ccccc3)cc2C(c2ccc(OC)cc2)C1O` (single isomer, unassigned) [Example 115], for which the negative-log IC50 (pIC50) (read-out: Human TC IC50) is 5.10.
As for `CCCCC1(CC)CS(=O)(=O)c2ccc(NC(=O)OCc3ccccc3)cc2C(c2ccc(OC)cc2)C1O` (single isomer, unassigned) [Example 116], the pIC50 (read-out: Human TC IC50) was 6.52.
Regarding `CCCCC1(CC)CS(=O)(=O)c2ccc(N)cc2C(c2ccccc2)C1O` (single isomer, unassigned) [Example 121], the pIC50 (read-out: Human TC IC50) was 7.17.
For `CCCCC1(CC)CS(=O)(=O)c2ccc(N)cc2C(c2ccccc2)C1O` (single isomer, unassigned) [Example 122], the pIC50 (read-out: Human TC IC50) is 5.97.
Same read-out and setting: under `CCCCC1(CC)CS(=O)(=O)c2ccc(N)cc2C(c2ccc(F)cc2)C1O` (single isomer, unassigned) [Example 127] stands 6.26; under `CCCCC1(CC)CS(=O)(=O)c2ccc(N)cc2C(c2ccc(F)cc2)C1O` (single isomer, unassigned) [Example 129], 7.46; under `CCCCC1(CC)CS(=O)(=O)c2ccc(SC)cc2C(c2cccc(OC)c2)C1O` (single isomer, unassigned) [Example 142], 6.30.
Same read-out and setting: under `CCCCC1(CC)CS(=O)(=O)c2ccc(SC)cc2C(c2cccc(OC)c2)C1O` (single isomer, unassigned) [Example 143] stands 7.52; under `CCCCC1(CC)CS(=O)(=O)c2ccc(OC)cc2C(c2cccc(OC)c2)C1O` (single isomer, unassigned) [Example 262], 7.15; under `CCCCC1(CC)CS(=O)(=O)c2ccc(OC)cc2C(c2cccc(OC)c2)C1O` (single isomer, unassigned) [Example 263], 6.15.
Same read-out and setting: as for `CCCCC1(CC)CS(=O)(=O)c2ccc(OC)cc2C(c2cccc(C(F)(F)F)c2)C1O` (single isomer, unassigned) [Example 264], the figure is 6.70; as for `CCCCC1(CC)CS(=O)(=O)c2ccc(OC)cc2C(c2cccc(C(F)(F)F)c2)C1O` (single isomer, unassigned) [Example 265], 5.70; as for `CCCCC1(CC)CS(=O)(=O)c2ccc(Br)cc2C(c2cccc(OC)c2)C1O` (single isomer, unassigned) [Example 271], 7.15.
In the case of `CCCCC1(CC)CS(=O)(=O)c2ccc(Br)cc2C(c2cccc(OC)c2)C1O` (single isomer, unassigned) [Example 272], for the setting “read-out: Human TC IC50”, the pIC50 is 6.15.
Consider `CCCCC1(CC)CS(=O)(=O)c2ccc(F)cc2C(c2ccc(F)cc2)C1O` (single isomer, unassigned) [Example 273], for which, for the setting “read-out: Human TC IC50”, the pIC50 is 5.72.
Take `CCCCC1(CC)CS(=O)(=O)c2ccc(F)cc2C(c2ccc(F)cc2)C1O` (single isomer, unassigned) [Example 274]: the pIC50 (read-out: Human TC IC50) was 6.74.
For the compound `CCCCC1(CC)CS(=O)(=O)c2ccc(C)cc2C(c2ccc(F)cc2)C1O` (single isomer, unassigned) [Example 282], under “read-out: Human TC IC50”, the pIC50 is 7.68.
As to `CCCCC1(CC)CS(=O)(=O)c2ccc(C)cc2C(c2ccc(F)cc2)C1O` (single isomer, unassigned) [Example 283], the pIC50 (read-out: Human TC IC50) is 6.46.
With `CCCCC1(CCCC)CS(=O)(=O)c2c(cccc2N(C)C)C(c2ccsc2)C1O` (single isomer, unassigned) [Example 1067], the pIC50 (read-out: Human TC IC50) is 8.40.
As for `CCCCC1(CC)CS(=O)(=O)c2ccc(N(C)C)cc2C(c2ccc(O)cc2)C1O` (single isomer, unassigned) [Example 1078], the negative logarithm of the IC50 (pIC50) (read-out: Human TC IC50) was 8.35.
Turning to `CCCCC1(CC)CS(=O)(=O)c2ccc(N(C)C)cc2C(c2cccc(C)c2)C1O` (single isomer, unassigned) [Example 1116], the pIC50 (read-out: Human TC IC50) is 8.03.
Take `CCCCC1(CCCC)CS(=O)(=O)c2ccc(N(C)C)cc2C(c2ccc(OC)c(F)c2)C1O` (single isomer, unassigned) [Example 1143]: the pIC50 (read-out: Human TC IC50) was 7.57.
On to `CCCCC1(CC)CS(=O)(=O)c2ccc(N(C)C)cc2C(c2ccc(OC)c(F)c2)C1O` (single isomer, unassigned) [Example 1151], for which, under “read-out: Human TC IC50”, the pIC50 was 7.51.
Turning to `CCCCC1(CCCC)CS(=O)(=O)c2ccc(N(C)C)cc2C(c2ccccc2)C1O` (single isomer, unassigned) [Example 1200], for the setting “read-out: Human TC IC50”, the pIC50 is 5.21.
As for `CCCCC1(CCCC)CS(=O)(=O)c2c(cccc2N2CCOCC2)C(c2ccc(OC)cc2)C1O` (single isomer, unassigned) [Example 1212], under “read-out: Human TC IC50”, the pIC50 was 6.41.
The same measure, in the same setting: under `CCCCC1(CC)CS(=O)(=O)c2ccc(N(C)C)cc2C(c2ccc(OC)c(F)c2)C1O` (single isomer, unassigned) [Example 1213] stands 5.77; under `CCCCC1(CC)CS(=O)(=O)c2ccc(N(C)C)cc2C(c2cccc(C)c2)C1O` (single isomer, unassigned) [Example 1225], 6.92.
`CCCCC1(CCCC)CS(=O)(=O)c2c(cccc2N(C)C)C(c2ccsc2)C1O` (single isomer, unassigned) [Example 1232]: the pIC50 (read-out: Human TC IC50) was 5.92.
Consider `CCCCC1(CC)CS(=O)(=O)c2ccc(N(C)C)cc2C(c2ccccc2)C1O` (single isomer, unassigned) [Example 1259], for which the pIC50 (Human TC IC50) was 4.78.
In the case of `CCCCC1(CC)CS(=O)(=O)c2ccc(N(C)C)cc2C(c2ccc(O)cc2)C1O` (single isomer, unassigned) [Example 1287], the pIC50 (read-out: Human TC IC50) was 7.15.
In the case of `CCCCC1(CC)CS(=O)(=O)c2ccc(N(C)C)cc2C(c2ccccc2)C1O` (single isomer, unassigned) [Example 1300], under “Human TC IC50”, the pIC50 is 6.00.
With `CCCCC1(CCCC)CS(=O)(=O)c2c(cccc2N2CCOCC2)C(c2ccc(OC)cc2)C1O` (single isomer, unassigned) [Example 1307], the pIC50 (read-out: Human TC IC50) is 5.51.
Same read-out and setting: as for `CCCCC1(CC)CS(=O)(=O)c2ccc(NO)cc2C(c2ccccc2)C1O` (single isomer, unassigned) [Example 1311], the figure is 5.49; as for `CCCCC1(CC)CS(=O)(=O)c2ccc(NO)cc2C(c2ccccc2)C1O` (single isomer, unassigned) [Example 1314], 6.59.
In the case of `CCCCC1(CC)C=C(c2ccccc2)c2ccccc2SC1` (stereo not shown) [Example 3, 3-Butyl-3-ethyl-5-phenyl-2,3-dihydrobenzothiepine], the inhibition at 100 µM is 0%.
On to `CCCC[C@]1(CC)CS(=O)(=O)c2ccccc2[C@@H](c2ccccc2)[C@@H]1O` [Example 6a, (3α,4α,5β) 3-Butyl-3-ethyl-4-hydroxy-5-phenyl-2,3,4,5-tetrahydrobenzothiepine-1,1-dioxide], for which the IC50 turned out to be 5 µM.

As usually defined, the inhibition is the relative decrease from the control value, in per cent. For orientation: IC50 means the concentration needed to halve the response being measured. For orientation: pIC50 means −log10 of the IC50, conventionally taken in molar units.

The record behind these values is patent publication US6784201B2, “Benzothiepines having activity as inhibitors of ileal bile acid transport and taurocholate uptake” (G.D. Searle & Company, priority 1994, dated 2004).
